Common to all, as to assay: standardised AUC of viability dose-response curve (72 h) (fraction (0-1)); higher = less growth inhibition (more resistant)
The subject of one assay is A204. Summed up: (§1)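 After 72 h with 2.5 µl of compound (compound-plate series 10 mM to 0.0002 mM), triplicate wells of sarcoma cell lines in 384-well plates were read with ATPLite, with viability scaled 1 (full) to 0 (none) and fitted with a four-parameter log-logistic model. The values give the standardised area under the dose-response curve in log-dose space from a modified drexplorer computeAUC. A value of 1 means no response and 0 means full response.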

The next assay concerns G401. Summed up:
as §1

The next assay concerns HS729. The method in brief:
as §1

The next assay concerns HT1080. Summed up:
as §1

In a further assay the test system is KHOS-240S. Summed up: as §1
The next assay deals with KHOS-NP. Summed up: as §1
For a further assay, the system named is MES-SA. The method in brief: as §1
The test system of a further assay is RD-ES. The method in brief:
as §1

For another assay, the system named is RD. The method in brief: as §1
For the next assay, the system named is SK-ES-1. Summed up:
as §1

The test system of another assay is SK-LMS-1. Summed up: as §1
Another assay has as its system SW1353. The method in brief: as §1
A further assay deals with SW684. Summed up:
as §1

A further assay concerns SW872. Summed up:
as §1

A further assay concerns SW982. The method in brief: as §1
Another assay has as its system SYO-1. Summed up:
as §1

The next assay has as its system VA-ES-BJ. Summed up:
as §1

Structures are written as SMILES.

As to `O=C(Cc1ccc(-c2ccc(OCCN3CCOCC3)cc2)cn1)NCc1ccccc1` [KX2-391], the “standardised AUC” value with A204 is 0.677; in the assay on G401, 0.729; in the assay on HS729, 0.742; in the assay with HT1080, 0.579; with KHOS-240S it was 0.609; in the assay with KHOS-NP it was 0.72. Also, the “standardised AUC” value in the assay on MES-SA worked out at 0.57; in the assay on RD-ES it was 0.539; with RD, 0.636; with SK-ES-1 it was 0.484; in the assay on SK-LMS-1 it was 0.676; with SW1353 it was 0.752. For the same compound, the “standardised AUC” value in the assay with SW684 amounted to 0.827; in the assay on SW872, 0.733; in the assay with SW982, 0.63; with SYO-1, 0.668; in the assay with VA-ES-BJ, 0.632.

On to `C[C@@H]1COCCN1c1cc(-c2ccnn2C)c2ccnc(-c3ccn[nH]3)c2n1`, for which the “standardised AUC” value in the assay with A204 came out at 0.689; in the assay with G401 it was 0.819; in the assay with HS729, 0.782; in the assay on HT1080, 0.686; in the assay with KHOS-240S, 0.603; with KHOS-NP, 0.826. In addition, the “standardised AUC” value in the assay on MES-SA is 0.641; in the assay on RD-ES, 0.673; in the assay with RD, 0.75; with SK-ES-1 it was 0.637; in the assay with SK-LMS-1, 0.751; with SW1353, 0.791. The “standardised AUC” value came to 0.828 with SW684; 0.706 with SW872; 0.615 in the assay on SW982; 0.606 with SYO-1; 0.626 in the assay with VA-ES-BJ.

The values above are taken from the supplement of paper PMC10883282.
